From patent publication US6066484A, “Purine nucleosidase” (Suntory Limited, priority 1996, dated 2000)

Tests used:
[1] = test system: Active fraction 2 (purine nucleosidase activity); experiment: Purine nucleosidase activity of active fraction 2 (1st DEAE-Sephacel); assay type: biochemical, Ochrobactrum anthropi
purine nucleosidase [2] = experiment: Specific activity, Km and Vmax of purine nucleosidase; assay type: biochemical, Ochrobactrum anthropi; conditions: pH 4.5; for Km / Vmax: 30° C.; for Specific activity: 50° C.
Procedure: (§1) The reaction solution (200 μl) contained 0.5 mM of adenosine or inosine or 0.25 mM of guanosine as the substrate, 50 mM of acetate buffer at pH 4.5 and a sufficient amount of enzyme. The reaction was initiated by addition of the enzyme, and the reaction was conducted at 50° C. for 5 minutes. The reaction was terminated by addition of 20 μl of 15% perchloric acid, and after centrifugation (35,000 rpm, 10 min) the supernatant was analyzed qualitatively by thin-layer chromatography (TLC) and quantitatively by high-performance liquid chromatography. The analysis methods were as follows.
(2) High-performance liquid chromatography
Eluent: 0.1 M sodium chlorate tetrahydrate, 0.1% (v/v) phosphoric acid
(§2) The specific activity was measured under conditions of 50° C., pH 4.5. The Km and Vmax were measured under conditions of 30° C., pH 4.5. The relative activity was expressed according to the following measurement method.

[3] = test system: Active fraction 1 (purine nucleosidase activity); experiment: Purine nucleosidase activity of active fraction 1 (1st DEAE-Sephacel); assay type: biochemical, Ochrobactrum anthropi
Procedure: After suspending 20 g of the wet cells in 40 ml of 10 mM Tris-HCl buffer solution (pH 7.4) (hereunder referred to as "buffer"), they were disrupted in a Dynamill at 4° C. for 10 minutes. After filtering the disrupted cell suspension it was centrifuged (10,000 rpm, 60 min) and the supernatant was used as a cell-free extract. The cell-free extract (250 ml) was dialyzed for 12 hours against 5 L of buffer and then applied to a DEAE-Sephacel column (3×30 cm, 200 ml) which had been equilibrized with the buffer. The adsorbed protein was eluted with an NaCl concentration gradient from 0 to 1.0 M and the active fractions were recovered.
The purine nucleosidase activity at this time was split into two peaks (FIG. 1). Fraction nos. 46 to 69 were collected as the first active fraction and fraction nos. 85 to 101 were collected as the second active fraction.
as §1

purine nucleosidase [4] = experiment: Substrate specificity of purine nucleosidase by thin-layer chromatography; assay type: biochemical, Ochrobactrum anthropi; conditions: for decomposition of purine nucleosides (in words): pH 5.5 and 60° C.; for Relative activity: thin-layer chromatography
Procedure: as §1
(1) Thin-layer chromatography
Plate: Kieselgel 60F254 (Merk)
Developing solution: n-butanol/isopropanol/H2 O/NH4 OH=1:7:2:0.2 (v/v/v/v) (for adenosine and guanosine substrates), n-butanol/acetic acid/H2 O=5:1:1 (v/v/v) (for inosine substrate)
The substrate specificity of the purine nucleosidase was determined by thin-layer chromatography (TLC).
as §2

[5] = test system: Bacillus cereus nucleosidase; experiment: Bacillus cereus nucleosidase, cell extracts; assay type: biochemical; conditions: studies by the present inventors
Excerpt: Based on studies by the present inventors using cell extracts, the activity against guanosine is low. Crithidia fasciculata nucleosidase has a high optimum pH of 8.5. Wort also contains various low molecular substances, sugars and proteins, and it has not yet been investigated whether known nucleosidases can actually act on them. Therefore, we screened natural sources for microorganism-derived purine nucleosidases which can utilize adenosine, inosine and guanosine as substrates under conditions of pH 5.0 to 5.5, 50 to 80° C. As a result, high purine nucleosidase activity was found in crushed cell solutions of Ochrobactrum anthropi.

[6] = test system: Aspergillus niger nucleosidase; conditions: cited from earlier work

Row | Structure (SMILES) | Specific activity, Active fraction 2 ([1]; 30° C.) | Specific activity, Active fraction 2 ([1]; 50° C.) | Km (purine nucleosidase [2]) | Vmax (purine nucleosidase [2]) | Specific activity (purine nucleosidase [2]) | Specific activity, Active fraction 1 ([3]; 30° C.) | Specific activity, Active fraction 1 ([3]; 50° C.) | decomposition of purine nucleosides (in words) (purine nucleosidase [4]) | Relative activity (purine nucleosidase [4]) | activity against substrate (in words) [5] | decomposition of substrate (in words) [6]
1 | Nc1nc2c(ncn2[C@@H]2O[C@H](CO)[C@@H](O)[C@H]2O)c(=O)[nH]1 [guanosine] | 0.33 µmol/min/mg | 0.26 µmol/min/mg | 53.9 µM | 11.5 µmol/min/mg | 63.3 µmol/min/mg | 0.44 µmol/min/mg | 1.5 µmol/min/mg | capable of decomposing | ++++ (>50%) | low | –
2 | OC[C@H]1O[C@@H](n2cnc3c(O)ncnc32)[C@H](O)[C@@H]1O [inosine] | 0.63 µmol/min/mg | 0.44 µmol/min/mg | 29.6 µM | 18.8 µmol/min/mg | 177 µmol/min/mg | 1.02 µmol/min/mg | 4.3 µmol/min/mg | capable of decomposing | ++++ (>50%) | – | –
3 | O=c1[nH]c(=O)c2ncn([C@@H]3O[C@H](CO)[C@@H](O)[C@H]3O)c2[nH]1 [xanthosine] | – | – | 63.8 µM | 68 µmol/min/mg | – | – | – | capable of decomposing | ++++ (>50%) | – | cannot decompose
